What was measured:
lung Col1a1 expression [1] = assay: Precision cut lung slices of mice under chronic bleomycin exposure (single vs dual integrin inhibition); type: cell-based, mouse; settings: slices cultured 7 days
Protocol: Mice (C57BL/6) were administered 3 U/kg of bleomycin (Teva Pharmaceuticals; North Wales, PA) on Day 0 and 1 U/kg of bleomycin on days 14, 28, 42 and 56 via oropharyngeal aspiration while under anesthesia. At day 70, 14 days after the final bleomycin insult, precision cut lung slices were obtained. Following euthanization, 2% low gelling temp agarose was injected into the mouse lungs via the trachea. […] The lobes were then subjected to precision slicing to obtain samples for culture using a microtome (Compresstome VF-300-0Z, Precisionary; Greenville, NC). Individual slices were distributed in a multiwell culture plate and cultured for 7 days under control (DMSO) and test compound conditions. […]
During the culture period, slices in the control group were treated with DMSO and slices in the test group were treated with a DMSO solution of one of: the selective antibody αvβ6 inhibitor 3G9; the αvβ1-selective small molecule inhibitor; a combination of the selective antibody αvβ6 inhibitor 3G9 and the αvβ1-selective small molecule inhibitor; compound 5; and the small molecule ALK5 inhibitor. The selective αvβ1 and αvβ6 integrin inhibitors were analyzed at ≥ their respective IC90 concentrations for inhibition of TGF-beta activation. […] The small molecule ALK5 inhibitor was analyzed at 10x its reported IC50 value.

lung Col1a1 expression [2] = assay: Precision cut lung slices of mice under chronic bleomycin exposure (vs pirfenidone and nintedanib); type: cell-based, mouse; settings: slices cultured 7 days; nintedanib and pirfenidone at 10x therapeutic concentrations
Protocol: Mice (C57BL/6) were administered 3 U/kg of bleomycin (Teva Pharmaceuticals; North Wales, PA) on Day 0 and 1 U/kg of bleomycin on days 14, 28, 42 and 56 via oropharyngeal aspiration while under anesthesia. At day 70, 14 days following the final bleomycin insult, precision cut lung slices were obtained. Following euthanization, 2% low gelling temp agarose was injected into the mouse lungs via the trachea. […] The lobes were then subjected to precision slicing to obtain samples for culture using a microtome (Compresstome VF-300-0Z, Precisionary; Greenville, NC). Individual slices were distributed in a multiwell culture plate and cultured for 7 days under control (DMSO) and test compound conditions. The viability of the slices over the course of culturing was confirmed by WST-1 assay of mitochondrial activity.
During the culture period, slices in the control group were treated with DMSO and slices in the test group were treated with a DMSO solution of one of: compound 5; nintedanib; pirfenidone; a combination of nintedanib and compound 5; a combination of pirfenidone and compound 5; or the small molecule ALK5 inhibitor. Compound 5 was […] effective to equal or exceed its respective IC50 values at αvβ6 and αvβ1. The small molecule ALK5 inhibitor was analyzed at 10x its reported IC50 value. Nintendanib and pirfenidone were analyzed at concentrations 10x their reported therapeutic concentrations.

[3] = SAD and MAD first-in-human studies, plasma LC-MS/MS; type: in vivo; settings: healthy subjects
Protocol: Healthy human subjects (N=85) were selected for single ascending dose (SAD) and multiple ascending dose (MAD) first-in-human studies. A solution for oral administration was prepared, containing 10 mg/mL of compound 5 in a 50:50 mixture of ORA-SWEET® SF (PERRIGO®, Allegan, Michigan) and sterile water for irrigation. Sufficient solution was administered orally to the subjects to provide between 15 mg/dose and 75 mg/dose of compound 5 in the SAD study and between 10 mg/dose and 40 mg/dose of compound 5 in the MAD study. Concentrations of compound 5 were measured in the subjects by obtaining a sample of plasma from each subject at desired intervals, and subjecting the plasma to liquid chromatography-mass spectrometry-mass spectrometry (LC-MS/MS), with quantification using a calibration curve determined from a range of solutions at standardized concentrations. The lower limit of quantitation (LLOQ) of the assay was 1 ng/mL and the calibration curve range was 1 to 500 ng/mL.

pSMAD2:SMAD2 ratio = pSMAD2:SMAD2 ratio in BAL of healthy human subjects; type: in vivo; settings: subjects with Cmax above 700 ng/mL; Day 7 vs baseline (Day -1)
Protocol: In order to evaluate the change of pSMAD2 as a biomarker of TGF-β activity following administration of an integrin inhibitor, and to determine a therapeutically effective dosage and an effective blood plasma Cmax of the integrin inhibitor, healthy subjects were administered compound 5, a dual selective αvβ6/avβ1-integrin inhibitor, and the corresponding Cmax levels and decrease in phosphorylation levels and were determined.
Healthy non-smoking adult males without history of lung disease were selected as subjects and were randomized into 4 cohorts. Broncoalevaolar lavage samples were obtained from all subjects 1 day prior to start of treatment. Cohorts 1 and 2 were administered 20 mg of a compound daily, wherein 3 subjects were administered the dual selective αvβ6/αvβ1-integrin inhibitor (compound 5) per every 1 subject receiving a placebo compound. Cohorts 3 and 4 were administered 40 mg of a compound daily, wherein 3 subjects were administered the dual selective αvβ6/αvβ1- integrin inhibitor (compound 5) per every 1 subject receiving a placebo compound. BAL samples and blood samples were taken from all subjects on Day -1 (baseline) and on Day 7 (end of treatment).

With `COCCN(CCCCc1ccc2c(n1)NCCC2)CC[C@H](Nc1ncnc2ccccc12)C(=O)O` [Compound 5, (S)-4-((2-methoxyethyl)(4-(5,6,7,8-tetrahydro-1,8-naphthyridin-2-yl)butyl)amino)-2-(quinazolin-4-ylamino)butanoic acid] the “lung Col1a1 expression vs DMSO control” value (lung Col1a1 expression [1]) was “decreased lung Col1a1 expression substantially”, the “lung Col1a1 expression vs DMSO control” value (lung Col1a1 expression [2]) was “substantial, statistically significant” and the “oral bioavailability and pharmacokinetics” value [3] was “good oral bioavailability and pharmacokinetics”. The “reduction in pSMAD2:SMAD2 ratio in BAL” value (pSMAD2:SMAD2 ratio) was at least 50%.

From patent US20230293519A1, “INTEGRIN INHIBITORS AND USES THEREOF IN COMBINATION WITH OTHER AGENTS” (Pliant Therapeutics, Inc., priority 2021, published 2023)
